Measurements as given in patent US9272993B2, “Naphthoquinone derivatives useful for prevention of amyloid deposits and treatment of diseases involving amyloidogenesis” (TECHNOLOGY INNOVATION MOMENTUM FUND (ISRAEL) LIMITED …, priority 2008, dated 2016).
Like-named read-outs stand apart in the source and are kept apart here.

Legend:
[1] = system: rat PC12 cell line; assay: MTT cell viability assay, cytotoxicity of soluble Aβ oligomers; assay type: cell-based; conditions: PC12 cells, 24 hours
Method: The cytotoxicity assay was performed with Rat PC12 cells (1.5×10^5 cells/mL) cultured in 96-well microplates (100 μL/well) and incubated overnight at 37° C. Samples with toxic oligomers from above were either dialyzed over night against PBS buffer or diluted with 9 volumes of an aqueous solution containing 33% methanol and 4% acetic acid, and incubated for 2 hours at 4° C. The samples were then centrifuged at 16,000 g for 40 minutes, the supernatant discarded and the pellet was resuspended in 5 mM NaH2PO4, 35 mM NaCl, pH 7.4. To each well we added 100 μL of 0.5 μM Aβ which formed toxic oligomers and prepared mixtures of inhibitors at various concentrations. Each experiment was repeated four times. Following incubation for 24 hours at 37° C., cell viability was evaluated using the MTT assay. Briefly, 20 μL of 5 mg/mL MTT dissolved in PBS was added to each well. […] Finally, color intensity was measured using an ELISA reader at 570 nm.
To further substantiate the inhibition induced by SY-81, it was tested whether SY-81 affects the toxicity of Aβ oligomers towards the rat PC12 cell line. Toxic oligomers were pre-incubated with different concentrations of SY-81 and toxicity was assessed using the MTT cell viability assay.

[2] = Locomotion (climbing) assay in Alzheimer's Drosophila model; assay type: in vivo, Drosophila melanogaster; conditions: medium with 0.75 mg/ml, control males lacking Aβ1-42 expression
Method: In vivo studies (fly maintenance) were performed with Drosophila melanogaster flies grown on a standard corneal-molasses medium and kept at 25° C. As Drosophila females can store sperm cells in their bodies, crosses were conducted using virgin females collected no longer than 8 hours after eclosion at 25° C. or 18 hours after eclosion at 18° C. Adult offspring (F1) from the crosses were collected up to 9 days after the beginning of their eclosion at 25° C. in order to avoid collection of offspring from the next generation (F2). […]
The locomotion (climbing) assay was carried out in fresh rearing vials, each containing 10 flies of a given class (four classes mentioned below). […] The percent of flies which climbed to the top of the test tube was then calculated over time. […] Data were analyzed using standard ANOVA statistical exams.
In order to assess the effect of SY-81 and SY-83 in the living organism, a Drosophila model of Alzheimer's was used, based on the work of Crowther et al. (ibid) who generated transgenic flies that express the human Aβ1-42 protein conditionally, using the UAS-Gal4 expression system. […] These defects included progressive decline of locomotion in aged flies (measured as ability to climb up), and marked shortening of life span. […]
Suppression of climbing defects was assessed as detailed below in flies genotype: Gal4-elav^c155 UAS-Aβ1-42. […]

[3] = target: T1, Aβ1-40 fibrils (Homo sapiens, UniProt P05067); assay: Thioflavin T (ThT) fluorescence assay of fibril formation; assay type: biochemical
T1 construct: Amyloid β-peptide(1-42) and amyloid β-peptide(1-40) trifluoroacetate salts; purchased Bachem (Bubendorf, Switzerland); host or cells: synthetic peptide
Method: For executing the ThT florescence assay, Aβ1-40 was dissolved to a concentration of 10 μM in 10% DMSO in PBS (pH 7.4). Aβ was immediately mixed with or without different concentrations of SY-81 or SY-83 at a 1:1 ration to a final concentration of 5 μM. The samples were incubated at 37° C. and the fibrillogenesis rate was followed by thioflavin T (ThT) fluorescence assay (excitation at 450 nm, 2.5 nm slit, and emission at 480 nm, 5 nm slit), over a course of 11 days to two weeks. ThT was added to a 10-fold diluted sample and measured using a Jobin Yvon Horiba Fluoromax 3 fluorimeter.
Though there is a growing recognition that the early Aβ oligomer intermediates and not the fibrils are the most toxic amyloid forms in AD, this debate has not been completely resolved. […] This method provides quantitative information on amyloid fibrils growth. β-amyloid was allowed to form amyloid fibrils either in the presence of different concentrations of SY-83 (FIGS. 5A, C) or SY-81 (FIGS. 5B, D) or with no inhibitor (WT). The fibrillization process was followed for several days until a plateau state was reached. Fluorescence values were measured throughout.
An end point experiment was further conducted with various concentrations of SY-81 and SY-83 in order to determine IC50. An IC50 of 50 nM and 100 nM was measured for SY-81 and SY-83, respectively. […]

[4] = target: T2, Aβ1-42 (Homo sapiens, UniProt P05067); assay: Fluorescence anisotropy (polarization) titration with Aβ1-42; assay type: binding
T2 construct: Amyloid β-peptide(1-42) and amyloid β-peptide(1-40) trifluoroacetate salts; purchased Bachem (Bubendorf, Switzerland); host or cells: synthetic peptide
Method: For the florescence anisotropy studies SY-81 or SY-83 was dissolved in DMSO to a concentration of 1 μM and sonicated for 5 min. The solution was immediately mixed with aliquots of an Aβ1-42 stock solution (20 μM) to varying final polypeptide concentrations. SY-81 and SY-83 polarization measurements were carried out using an ISS K2 fluorimeter. The solutions were excited at 280 nm and emission was monitored at 350 nm. For each single point, at least five measurements were collected and their average values were used for the calculation. All experiments were performed in PBS (pH 7.4).
Increasing amounts of Aβ were titrated into a solution of SY-83 or SY-81 and the anisotropy 15 was determined (FIG. 4A-B).

[5] = system: 56 KD Aβ species; assay: Western blot of soluble brain fractions (6E10 antibody); assay type: in vivo; conditions: 5XFAD mice, 1 mg intraperitoneally every other day for 4 months

T2 sequence (P05067 672-713 limits assumed): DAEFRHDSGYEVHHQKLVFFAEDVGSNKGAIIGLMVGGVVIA
T1 sequence (P05067 672-711 limits assumed): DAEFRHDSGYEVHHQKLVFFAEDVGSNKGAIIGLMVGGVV

Row | Compound | toxic effect of the compound on its own (cell viability) [1] | climbing behavior of control males [2] | IC50 ([3]; end point experiment, various concentrations, read-out: IC50 of fibril formation) [nM] | Kd ([4]; fluorescence anisotropy, PBS pH 7.4, read-out: affinity towards Aβ) [nM] | reduction in 56 KD Aβ species in soluble brain fractions [5] [%] | IC50 [3] [nM] | Kd [4] [nM]
1 | O=C1C=C(NC(Cc2c[nH]c3ccccc23)C(=O)O)C(=O)c2ccccc21 (stereo not shown) [SY-81] | no toxic effect | No effect | 50 | ~90 |  |  | 
2 | O=C1C(Cl)=C(NC(Cc2c[nH]c3ccccc23)C(=O)O)C(=O)c2ccccc21 (stereo not shown) [SY-83] |  |  |  |  | 91 | 100 | ~900
